Reference: patent US9113629B2, “4-amino-6-(4-substituted-phenyl)-picolinates and 6-amino-2-(4-substituted-phenyl)-pyrimidine-4-carboxylates and their use as herbicides” (DOW AGROSCIENCES LLC, priority 2013, dated 2015)
Like-named read-outs stand apart in the source and are kept apart here.

Legend:
[1] = tested on: Key Broadleaf Weed and Crop Species; test: Post-emergent Test II herbicidal activity (Table 5); assay type: in vivo; conditions: post-emergence, 336 h, 14 days after application; for pest or weed control at 70 g/ha: application rate 70 g ai/ha; for pest or weed control at 140 g/ha: application rate 140 g ai/ha
In short: (§1)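 Foliar application at 187 L/ha to greenhouse-grown seedlings (first or second true leaf); subirrigation thereafter. Visual 0–100% injury at 14 d relative to untreated plants.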

[2] = tested on: Key Grass and Sedge Weeds as well as Grass Crops; test: Post-emergent Test II herbicidal activity (Table 6); assay type: in vivo; conditions: post-emergence, 336 h; for pest or weed control at 70 g/ha: 70 g ai/ha; for pest or weed control at 140 g/ha: 140 g ai/ha
In short: as §1

[3] = ABUTH: velvetleaf (Abutilon theophrasti), read-out: Visual Growth Reduction (%) 14 Days After Application, ABUTH
[4] = AMARE: redroot pigweed (Amaranthus retroflexus), read-out: Visual Growth Reduction (%) 14 Days After Application, AMARE
[5] = BRSNN: oilseed-rape, canola (Brassica napus), read-out: Visual Growth Reduction (%) 14 Days After Application, BRSNN
[6] = CHEAL: lambsquarters (Chenopodium album), read-out: Visual Growth Reduction (%) 14 Days After Application, CHEAL
[7] = EPHHL: wild poinsettia (Euphorbia heterophylla), read-out: Visual Growth Reduction (%) 14 Days After Application, EPHHL
[8] = HELAN: sunflower (Helianthus annuus), read-out: Visual Growth Reduction (%) 14 Days After Application, HELAN
[9] = VIOTR: wild pansy (Viola tricolor), read-out: Visual Growth Reduction (%) 14 Days After Application, VIOTR
[10] = CYPES: yellow nutsedge (Cyperus esculentus), read-out: Visual Growth Reduction (%) 14 Days After Application, CYPES
[11] = DIGSA: crabgrass (Digitaria sanguinalis), read-out: Visual Growth Reduction (%) 14 Days After Application, DIGSA
[12] = ECHCG: barnyardgrass (Echinochloa crus-galli), read-out: Visual Growth Reduction (%) 14 Days After Application, ECHCG
[13] = ORYSA: rice (Oryza sativa), crop, read-out: Visual Growth Reduction (%) 14 Days After Application, ORYSA
[14] = SETFA: giant foxtail (Setaria faberi), read-out: Visual Growth Reduction (%) 14 Days After Application, SETFA
[15] = SORVU: grain sorghum (Sorghum vulgare), read-out: Visual Growth Reduction (%) 14 Days After Application, SORVU
[16] = TRZSS (wheat, Triticum aestivum), crop, read-out: Visual Growth Reduction (%) 14 Days After Application, TRZSS
[17] = ZEAMX: maize, corn (Zea mays), crop, read-out: Visual Growth Reduction (%) 14 Days After Application, ZEAMX

COC(=O)c1nc(-c2ccc(OC(F)F)c(F)c2F)c(F)c(N)c1Cl [Compound 103]
pest or weed control at 70 g/ha [1, 3]: 45 to 59%
pest or weed control at 140 g/ha [1, 3]: 45 to 59%
pest or weed control at 70 g/ha [1, 4]: 0 to 29%
pest or weed control at 140 g/ha [1, 4]: 0 to 29%
pest or weed control at 70 g/ha [1, 5]: 0 to 29%
pest or weed control at 140 g/ha [1, 5]: 30 to 44%
pest or weed control at 70 g/ha [1, 6]: 0 to 29%
pest or weed control at 140 g/ha [1, 6]: 85 to 94%
pest or weed control at 70 g/ha [1, 7]: 0 to 29%
pest or weed control at 140 g/ha [1, 7]: 0 to 29%
pest or weed control at 70 g/ha [1, 8]: 75 to 84%
pest or weed control at 140 g/ha [1, 8]: 75 to 84%
pest or weed control at 70 g/ha [1, 9]: 0 to 29%
pest or weed control at 140 g/ha [1, 9]: 0 to 29%
pest or weed control at 70 g/ha [2, 10]: 0 to 29%
pest or weed control at 140 g/ha [2, 10]: 45 to 59%
pest or weed control at 70 g/ha [2, 11]: 0 to 29%
pest or weed control at 140 g/ha [2, 11]: 0 to 29%
pest or weed control at 70 g/ha [2, 12]: 0 to 29%
pest or weed control at 140 g/ha [2, 12]: 0 to 29%
pest or weed control at 70 g/ha [2, 13]: 0 to 29%
pest or weed control at 140 g/ha [2, 13]: 0 to 29%
pest or weed control at 70 g/ha [2, 14]: 0 to 29%
pest or weed control at 140 g/ha [2, 14]: 0 to 29%
pest or weed control at 70 g/ha [2, 15]: 0 to 29%
pest or weed control at 140 g/ha [2, 15]: 0 to 29%
pest or weed control at 70 g/ha [2, 16]: 0 to 29%
pest or weed control at 140 g/ha [2, 16]: 0 to 29%
pest or weed control at 70 g/ha [2, 17]: 0 to 29%
pest or weed control at 140 g/ha [2, 17]: 0 to 29%
